The record followed here is patent US20250248973A1, “CANNABINOID RECEPTOR 1 ANTAGONISTS/INVERSE AGONISTS AND USES THEREOF” (Corbus Pharmaceuticals, Inc., priority 2022, published 2025).

The IC50 is the midpoint of a concentration-inhibition curve.

Where only a bound is given, the exact number is not on record here.

The target of data set [1] is Human CB1 Receptor-1b (hCB1b) (Homo sapiens (Human), UniProt P21554). Kind of data set: hCB1b Gai cyclic AMP (cAMP) TR-FRET assay, antagonism of EC80 CP55940 with forskolin. The data set is classed as cell-based. Particulars: hCB1b cells, 30 min pre-incubation, read-out: CB1b IC50. The procedure, abridged: (§1)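 Cells expressing hCB1 or hCB1b were preincubated with compound for 30 min at rt, then stimulated with an EC80 concentration of CP55940 plus forskolin for 20 min at 37C. cAMP was measured by TR-FRET using Eu-cAMP and 650-labeled anti-cAMP in lysis buffer, with emission at 620/665 nm. IC50 values are binned by category.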
Chain of Human CB1 Receptor-1b (hCB1b) (P21554 other isoform, or with tags, fused parts or gaps): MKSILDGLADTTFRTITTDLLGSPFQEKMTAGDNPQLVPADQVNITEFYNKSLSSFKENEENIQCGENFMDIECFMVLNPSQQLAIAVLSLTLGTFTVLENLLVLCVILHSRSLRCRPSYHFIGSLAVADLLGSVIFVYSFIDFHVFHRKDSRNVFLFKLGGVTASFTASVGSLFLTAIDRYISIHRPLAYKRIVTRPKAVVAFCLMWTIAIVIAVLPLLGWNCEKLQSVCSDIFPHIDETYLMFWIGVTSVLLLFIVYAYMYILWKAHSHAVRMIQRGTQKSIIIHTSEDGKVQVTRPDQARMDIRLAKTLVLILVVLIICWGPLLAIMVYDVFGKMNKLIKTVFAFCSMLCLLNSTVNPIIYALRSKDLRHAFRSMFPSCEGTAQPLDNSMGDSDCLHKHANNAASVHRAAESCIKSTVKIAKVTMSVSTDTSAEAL
(In TR-FRET formats the signal depends on donor and acceptor labels being close together.)

Data set [2] has as its target Human CB1 Receptor-1 (hCB1) (Homo sapiens (Human), UniProt P21554). In words: hCB1 Gai cyclic AMP (cAMP) TR-FRET assay, antagonism of EC80 CP55940 with forskolin. It counts as cell-based. Particulars: hCB1 cells, 30 min pre-incubation. The procedure, abridged: as §1
Data set [3] can be described thus: Pharmacokinetics following oral administration in male C57BL/6 mice: brain/plasma ratio. The data set is classed as in vivo. Conditions: single PO 10 mg/kg, compared to rimonabant 10 mg/kg PO. As for the experimental part: FIG. 2 provides graphs showing the brain/plasma ratio of orally administered Compound 9 (10 mg/kg) in comparison to orally administered rimonabant (10 mg/kg) C57BL/6J in mice, as measured by area under the curve from 0 to 24 hours (AUC0-24) and maximum concentration (Cmax) post administration.
Example 5. Pharmacokinetics of Following Oral Administration in Male C57BL/6 Mice
A study was conducted to compare the brain/plasma ratios of Compound 9 and rimonabant following oral administration in mice.
Fasted overnight with free access to water and fed 4 hr post dosing
PO administration via oral gavage
Group 2: PO, 10 mg/kg, 10 mL/kg
0.5% MC (400 cp) in purified water (1 mg/mL)
Terminal sampling for brain @0.25, 0.5, 1, 2, 4, 8 and 24 hr, 7 time points. (N=3/timepoint, N=21/arm); collect brains after perfusion.

Chain of Human CB1 Receptor-1 (hCB1) (P21554 whole entry): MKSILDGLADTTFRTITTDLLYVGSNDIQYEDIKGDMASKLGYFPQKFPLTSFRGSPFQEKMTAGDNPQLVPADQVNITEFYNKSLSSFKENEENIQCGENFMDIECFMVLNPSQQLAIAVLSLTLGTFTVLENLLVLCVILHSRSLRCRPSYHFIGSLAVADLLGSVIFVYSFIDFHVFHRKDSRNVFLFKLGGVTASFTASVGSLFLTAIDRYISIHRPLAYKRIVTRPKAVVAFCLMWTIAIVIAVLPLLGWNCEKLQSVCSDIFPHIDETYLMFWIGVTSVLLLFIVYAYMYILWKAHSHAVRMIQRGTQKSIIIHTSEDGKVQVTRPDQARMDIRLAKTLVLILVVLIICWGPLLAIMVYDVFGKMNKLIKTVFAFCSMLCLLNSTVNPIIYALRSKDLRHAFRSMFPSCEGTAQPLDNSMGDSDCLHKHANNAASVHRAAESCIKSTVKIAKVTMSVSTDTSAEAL

Turning to `NS(=O)(=O)CCNC(=NS(=O)(=O)c1ccc(C(F)(F)F)cc1)N1C[C@H](c2ccccc2)C(c2ccc(Cl)cc2)=N1` [Compound 9, (S,E)-3-(4-chlorophenyl)-4-phenyl-N-(2-sulfamoylethyl)-N′-((4-(trifluoromethyl)phenyl)sulfonyl)-4,5-dihydro-1H-pyrazole-1-carboximidamide], the IC50 in data set [1] and in data set [2] was < 100 nM throughout. In addition, the “blood-brain-barrier penetration (brain/plasma ratio by AUC0-24 and Cmax)” value in data set [3] was “substantially reduced blood-brain-barrier penetration as compared to rimonabant”.
Turning to `NS(=O)(=O)N1CC(N/C(=N\S(=O)(=O)c2ccc(Cl)cc2)N2C[C@H](c3ccccc3)C(c3ccc(Cl)cc3)=N2)C1` [Compound 191, (S,E)-3-(4-chlorophenyl)-N′-((4-chlorophenyl)sulfonyl)-4-phenyl-N-(1-sulfamoylazetidin-3-yl)-4,5-dihydro-1H-pyrazole-1-carboximidamide], the IC50 in data set [1] and in data set [2] was < 100 nM throughout.
In the case of `CN1CCN(S(=O)(=O)CCN/C(=N\S(=O)(=O)c2ccc(Cl)cc2)N2C[C@H](c3ccccc3)C(c3ccc(Cl)cc3)=N2)CC1` [Compound 157, (S,E)-3-(4-chlorophenyl)-N′-((4-chlorophenyl)sulfonyl)-N-(2-((4-methylpiperazin-1-yl)sulfonyl)ethyl)-4-phenyl-4,5-dihydro-1H-pyrazole-1-carboximidamide], the IC50 in data set [1] is 100 to 500 nM; in data set [2] it was < 100 nM.
The corresponding values for `Cn1cnc(S(=O)(=O)N=C(NCCS(N)(=O)=O)N2C[C@H](c3ccccc3)C(c3ccc(Cl)cc3)=N2)c1` [Compound 67, (S)-3-(4-chlorophenyl)-N′-((1-methyl-1H-imidazol-4-yl)sulfonyl)-4-phenyl-N-(2-sulfamoylethyl)-4,5-dihydro-1H-pyrazole-1-carboximidamide] are > 500 nM and > 500 nM.
Turning to `C#Cc1ccc(S(=O)(=O)N=C(NCCS(N)(=O)=O)N2C[C@H](c3ccccc3)C(c3ccc(F)cc3)=N2)cc1` [Compound 59, (S)-N′-((4-ethynylphenyl)sulfonyl)-3-(4-fluorophenyl)-4-phenyl-N-(2-sulfamoylethyl)-4,5-dihydro-1H-pyrazole-1-carboximidamide], the IC50 in data set [1] is < 100 nM; in data set [2] it was 100 to 500 nM.
For the molecule `NS(=O)(=O)[C@H]1CC[C@@H](N/C(=N/S(=O)(=O)c2ccc(Cl)cc2)N2C[C@H](c3ccccc3)C(c3ccc(F)cc3)=N2)CC1` (single isomer, unassigned) [Compound 123], the IC50 in data set [1] and in data set [2] was > 500 nM throughout.
Turning to `NS(=O)(=O)[C@H]1CC[C@@H](N/C(=N/S(=O)(=O)c2ccc(Cl)cc2)N2C[C@H](c3ccccc3)C(c3ccc(Cl)cc3)=N2)CC1` (single isomer, unassigned) [Compound 119], the IC50 in data set [1] and in data set [2] was > 500 nM each time.
Regarding `C[C@@H](CS(N)(=O)=O)N/C(=N\S(=O)(=O)c1ccc(C(F)(F)F)cc1)N1C[C@@H](c2ccccc2)C(c2ccc(Cl)cc2)=N1` [Compound 26, (R,E)-3-(4-chlorophenyl)-4-phenyl-N-((S)-1-sulfamoylpropan-2-yl)-N′-((4-(trifluoromethyl)phenyl)sulfonyl)-4,5-dihydro-1H-pyrazole-1-carboximidamide], the results for the IC50 in data set [1] and in data set [2] were 100 to 500 nM and < 100 nM, respectively.
As for `NS(=O)(=O)O[C@H]1C[C@@H](N/C(=N\S(=O)(=O)c2ccc(C(F)(F)F)cc2)N2C[C@@H](c3ccccc3)C(c3ccc(Cl)cc3)=N2)C1` [Compound 228, (1R,3s)-3-((R,E)-3-(4-chlorophenyl)-4-phenyl-N′-((4-(trifluoromethyl)phenyl)sulfonyl)-4,5-dihydro-1H-pyrazole-1-carboximidamido)cyclobutyl sulfamate], the IC50 in data set [1] is < 100 nM; in data set [2] it was > 500 nM.
